Reference: paper PMC4754833, “Rilpivirine analogs potently inhibit drug-resistant HIV-1 mutants” (Retrovirology, 2016)
Like-named read-outs stand apart in the source and are kept apart here.

How the values were obtained:
WT HIV-1 [1] = test: single round infection luciferase assay, WT HIV-1; assay type: cell-based; conditions: Human immunodeficiency virus 1
Description: (§1) The human osteosarcoma cell line, HOS, was obtained from Dr. Richard Schwartz (Michigan State University, East Lansing, MI) and grown in Dulbecco’s modified Eagle’s medium (Invitrogen, Carlsbad, CA) supplemented with 5 % (v/v) fetal bovine serum, 5 % newborn calf serum, and penicillin (50 units/ml) plus streptomycin (50 µg/ml; Quality Biological, Gaithersburg, MD). Virion production and single-round infectivity assays were used to determine antiviral activity (IC50 values) of the compounds as previously described.
(§2) pNLNgoMIVR-ΔEnv.LUC has been described previously. The RT open reading frame was removed from pNLNgoMIVR-ΔEnv.LUC (digestion with SpeI and SalI) and inserted between the SpeI and SalI sites of pBluescript II KS+. Using that construct as the wild-type template, we prepared the following HIV-1 RT mutants using the QuikChange II XL (Stratagene, La Jolla, CA) site-directed mutagenesis protocol kit: L100I, K103N, Y181C, Y188L, H221Y, K103N/Y181C, G190A, G190S, M230L, P236L, L100I/K103N, K103N/P225H, V106A/G190A/F227L, V106A, L234I, V106A/F227L, V106A/L234I, V106A/F227L/L234I, E40K, D67E, K101E, V111A, E138K, M184I, M184V, K101E/M184I, K101E/M184V, E138K/M184I, E138K/M184V, K101P, Y181I, and K101P/V179I. The following sense oligonucleotides were used with matching cognate antisense oligonucleotides (not shown) (Integrated DNA Technologies, Coralville, IA) in the mutagenesis: L100I, 5′-[…]-3′; L100I 2-103, 5′-[…]-3′; K103N, 5′-[…]-3′; Y181C, 5′-[…]-3′; Y188L, 5′-[…]-3′; H221Y, 5′-[…]-3′; G190A, 5′-[…]-3′; G190S, 5′-[…]-3′; P225H, 5′-[…]-3′; F227, 5′-[…]-3′; M230L, 5′-[…]-3′; P236L, 5′-[…]-3′; V106A, 5′-[…]-3′; L234I, 5′-[…]-3′; E40K, 5′-[…]-3′; D67E, 5′-[…]-3′; K101E, 5′-[…]-3′; V111A, 5′-[…]-3′; E138K, 5′-[…]-3′; M184I, 5′-[…]-3′; M184V, 5′-[…]-3′; K101P, 5′-[…]-3′; Y181I, 5′-[…]-3′; K101P/V179I, 5′-[…]-3′. The double mutants K103N/Y181C, K103N/P225H, and L100I/K103N were made using the previously generated K103N mutant and the appropriate oligonucleotides to add the second mutation, Y181C, P225, and L100I respectively. The double mutants V106A/F227L and V106A/L234I were prepared using the previously generated V106A mutant and the appropriate oligonucleotides to add the second mutation, F227L and L234I, respectively. The double mutants K101E/M184I and K101E/M184V were constructed using the previously generated K101E mutant and the appropriate oligonucleotides to add the second mutation, M184I and M184V, respectively. The double mutants E138K/M184I and E138K/M184V were constructed using the previously generated E138K mutant and the appropriate oligonucleotides for the second mutation, M184I and M184V, respectively. The triple mutant V106A/F227L/L234I was made using the previously generated V106A/F227L double mutant and the appropriate oligonucleotides for the third mutation, L234I. The triple mutant V106A/G190A/F227L was constructed in a series of steps using the previously generated V106A mutant and the appropriate oligonucleotides for the second mutation, G190A, to generate the double mutant V106A/G190A, and then the triple mutant was made using double mutant V106A/G190A and oligonucleotides for the third mutation, F227L. The DNA sequence of each construct was verified by DNA sequence determination. The sequences encoding the mutant RTs were then subcloned into pNLNgoMIVR-ΔEnv.LUC (between the KpnI and SalI sites) to produce the mutant HIV-1 constructs. These DNA sequences were also checked independently by DNA sequence determination.
(§3) 10.1186/s12977-016-0244-2 The IC50 values (nM) of RPV and the RPV analogs were determined against the NNRTI resistant mutants were measured by using a single round infection assay, n = 4. The concentrations (nM) are measured by reductions in luciferase reporter activity followed by the standard deviations. […]

HIV-1 RT mutant G190A = test: single round infection assay, G190A; assay type: cell-based; conditions: Human immunodeficiency virus 1
Description: as §1, §2, §3

HIV-1 RT mutant G190S = test: single round infection assay, G190S; assay type: cell-based; conditions: Human immunodeficiency virus 1
Description: as §1, §2, §3

HIV-1 RT mutant M230L = test: single round infection assay, M230L; assay type: cell-based; conditions: M230L vs WT
Description: as §1, §2, §3

HIV-1 RT mutant P236L = test: single round infection assay, P236L; assay type: cell-based
Description: as §1, §2, §3

[2] = tested on: HIV-1 RT mutant K103N/P225H; test: single round infection assay, K103N/P225H; assay type: cell-based; conditions: Human immunodeficiency virus 1
Description: as §1, §2, §3

[3] = tested on: HIV-1 RT mutant V106A/G190A/F227L; test: single round infection assay, V106A/G190A/F227L; assay type: cell-based
Description: as §1, §2, §3

[4] = tested on: HIV-1 RT mutant V106A/F227L; test: single round infection assay, V106A/F227L; assay type: cell-based; conditions: V106A/F227L vs WT
Description: as §1, §2, §3

[5] = tested on: HIV-1 RT mutant V106A/F227L/L234I; test: single round infection assay, V106A/F227L/L234I; assay type: cell-based; conditions: for IC50: ± SD, n=4
Description: as §1, §2, §3

HIV-1 RT mutant D67E = test: single round infection assay, D67E; assay type: cell-based; conditions: D67E vs WT
Description: as §1, §2, §3

HIV-1 RT mutant E138K = test: single round infection assay, E138K; assay type: cell-based; conditions: E138K vs WT
Description: as §1, §2, §3

[6] = tested on: HIV-1 RT mutant E138K/M184I; test: single round infection assay, E138K/M184I; assay type: cell-based; conditions: E138K/M184I vs WT
Description: as §1, §2, §3

HIV-1 RT mutant K101P = test: single round infection assay, K101P; assay type: cell-based
Description: as §1, §2, §3

HIV-1 RT mutant Y181I = test: single round infection assay, Y181I; assay type: cell-based
Description: as §1, §2, §3

[7] = tested on: HIV-1 RT mutant K101P/V179I; test: single round infection assay, K101P/V179I; assay type: cell-based
Description: as §1, §2, §3

WT HIV-1 [8] = conditions: previous study; cited from earlier work
HIV-1 RT mutant L100I = tested on: HIV-1 RT mutant L100I; parameters: method as in PMID 23217210; conditions: previous study; cited from earlier work
HIV-1 RT mutant K103N = tested on: HIV-1 RT mutant K103N; parameters: method as in PMID 23217210; conditions: previous study; cited from earlier work
HIV-1 RT mutant Y181C = tested on: HIV-1 RT mutant Y181C; parameters: method as in PMID 23217210; conditions: previous study; cited from earlier work
HIV-1 RT mutant H221Y = tested on: HIV-1 RT mutant H221Y; parameters: method as in PMID 23217210; conditions: previous study; cited from earlier work
[9] = tested on: HIV-1 RT mutant K103N/Y181C; parameters: method as in PMID 23217210; conditions: previous study; cited from earlier work

Cc1cc(/C=C/C#N)cc(C)c1Nc1nc(Nc2ccc(C#N)cc2)nc2[nH]cnc12 [compound 11]
IC50 (WT HIV-1 [1]): 0.56 ± 0.08 nM | IC50 (HIV-1 RT mutant G190A): 0.45 ± 0.01 nM | IC50 (HIV-1 RT mutant G190S): 0.2 ± 0.07 nM | fold-change of IC50 of the mutant relative to WT (HIV-1 RT mutant M230L): 3 | IC50 (HIV-1 RT mutant P236L; Human immunodeficiency virus 1): 0.87 ± 0.2 nM | fold-change of IC50 of the mutant relative to WT (HIV-1 RT mutant P236L; P236L vs WT): < 2 | IC50 [2]: 0.22 ± 0.06 nM | IC50 ([3]; Human immunodeficiency virus 1): 0.98 ± 0.17 nM | fold-change of IC50 of the mutant relative to WT ([3]; V106A/G190A/F227L vs WT): < 2 | fold-change of IC50 of the mutant relative to WT [4]: < 2 | IC50 ([5]; Human immunodeficiency virus 1, V106A/F227L/L234I (selected by DOR)): < 5 nM | IC50 ([5]; V106A/F227L/L234I (selected by DOR)): 3.4 ± 1.1 nM | fold-change of IC50 of the mutant relative to WT ([5]; V106A/F227L/L234I vs WT): 6 | fold-change of IC50 of the mutant relative to WT (HIV-1 RT mutant D67E): < 2 | fold-change of IC50 of the mutant relative to WT (HIV-1 RT mutant E138K): < 2 | fold-change of IC50 of the mutant relative to WT [6]: < 2 | IC50 (HIV-1 RT mutant K101P; Human immunodeficiency virus 1): 2.4 nM | fold-change of IC50 of the mutant relative to WT (HIV-1 RT mutant K101P; K101P vs WT): 4 | IC50 (HIV-1 RT mutant Y181I; Human immunodeficiency virus 1): 2.4 nM | fold-change of IC50 of the mutant relative to WT (HIV-1 RT mutant Y181I; Y181I vs WT): 4 | IC50 ([7]; Human immunodeficiency virus 1): 2.5 nM | fold-change of IC50 of the mutant relative to WT ([7]; K101P/V179I vs WT): 4 | IC50 (WT HIV-1 [8]): < 7 nM | IC50 (HIV-1 RT mutant L100I): < 7 nM | IC50 (HIV-1 RT mutant K103N): < 7 nM | IC50 (HIV-1 RT mutant Y181C): < 7 nM | IC50 (HIV-1 RT mutant H221Y): < 7 nM | IC50 [9]: < 5 nM
